Results taken from patent publication US8987273B2, “Substituted imidazo[1,2-B]pyridazines” (Bayer Intellectual Property GmbH, priority 2010, dated 2015).

Columns and labels:
[1] = target: His-tagged human recombinant kinase full-length Akt2 (Homo sapiens (Human), UniProt P31751); test: Akt2 kinase assay (TR-FRET); assay type: biochemical; conditions: 10 μM ATP; median
Procedure, shortened: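 PDK1-activated full-length His-Akt2 (insect-cell expressed, ~0.2 ng/μl final) pre-incubated with compound 15 min, then reacted 60 min at 22 °C with 10 μM ATP and 1 μM biotinylated peptide in Tris pH 7.5/MgCl2/DTT. EDTA stop; phospho-peptide read by HTRF 665/620 ratio, normalised to no-inhibitor and no-enzyme controls.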

[2] = tested on: phospho-AKT at S473 in KPL4 breast tumour cell line; test: Cellular p-AKT1/2/3-S473 assay; assay type: cell-based; conditions: KPL4 cells, 2 hours treatment; median; read-out: pAKT-S743 median IC50
[3] = target: His-tagged human recombinant kinase full-length Akt1 (Homo sapiens (Human), UniProt P31749); test: Akt1 kinase assay (TR-FRET); assay type: biochemical; conditions: 10 μM ATP; median
Procedure, shortened: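 Full-length His-tagged human Akt1 from insect cells, pre-incubated 15 min with compound, then 60 min at 22° C with 10 μM ATP and 1 μM biotinylated peptide in pH 7.5 TRIS buffer. Phosphopeptide detected by HTRF (665/620 nm ratio); data normalised to no-inhibitor and no-enzyme controls.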

KPL-4 cells = test: Tumor cell proliferation assay (CellTiter-Glo); assay type: cell-based; conditions: KPL4; 72 h drug exposure

Chain of His-tagged human recombinant kinase full-length Akt2 (P31751 whole entry): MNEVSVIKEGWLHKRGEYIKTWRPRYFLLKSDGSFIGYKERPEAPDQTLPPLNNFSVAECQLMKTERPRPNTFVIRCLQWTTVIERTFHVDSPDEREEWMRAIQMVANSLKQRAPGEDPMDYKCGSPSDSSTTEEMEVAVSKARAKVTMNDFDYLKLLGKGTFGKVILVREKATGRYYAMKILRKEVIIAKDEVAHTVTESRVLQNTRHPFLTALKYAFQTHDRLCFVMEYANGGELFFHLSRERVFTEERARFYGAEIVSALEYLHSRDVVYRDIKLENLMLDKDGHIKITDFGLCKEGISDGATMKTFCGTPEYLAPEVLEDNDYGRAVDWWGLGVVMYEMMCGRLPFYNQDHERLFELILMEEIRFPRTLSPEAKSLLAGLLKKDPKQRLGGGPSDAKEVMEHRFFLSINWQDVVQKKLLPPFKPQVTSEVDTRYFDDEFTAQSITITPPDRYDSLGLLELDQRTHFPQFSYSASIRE
Chain of His-tagged human recombinant kinase full-length Akt1 (P31749 whole entry): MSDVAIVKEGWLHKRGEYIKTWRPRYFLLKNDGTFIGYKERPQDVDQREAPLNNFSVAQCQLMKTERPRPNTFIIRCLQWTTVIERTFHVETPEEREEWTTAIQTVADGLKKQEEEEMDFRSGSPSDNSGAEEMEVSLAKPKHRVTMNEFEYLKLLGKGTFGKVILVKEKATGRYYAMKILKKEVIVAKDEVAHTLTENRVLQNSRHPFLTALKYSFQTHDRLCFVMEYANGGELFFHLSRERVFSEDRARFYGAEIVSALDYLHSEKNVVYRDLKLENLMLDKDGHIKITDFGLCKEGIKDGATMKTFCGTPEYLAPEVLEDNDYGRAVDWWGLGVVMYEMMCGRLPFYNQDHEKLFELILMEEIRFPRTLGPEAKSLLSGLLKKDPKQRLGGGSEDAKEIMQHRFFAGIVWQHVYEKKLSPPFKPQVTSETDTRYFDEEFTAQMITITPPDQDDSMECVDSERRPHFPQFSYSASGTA

IC50 [1]	IC50 [2]	IC50 [3]	IC50 (KPL-4 cells)	SMILES
20 µM	10 µM	18 µM	2.49 µM	Cc1nc2cc(-c3ccccc3)c(-c3ccc(C4(N)CCC4)cc3)nn2c1/C=C/C(N)=O [Example 10-0, (E)-3-{6-[4-(1-Amino-cyclobutyl)-phenyl]-2-methyl-7-phenyl-imidazo[1,2-b]pyridazin-3-yl}-acrylamide]
10.1 µM	10 µM	5.97 µM	5.28 µM	COC(=O)/C=C/c1c(C)nc2cc(-c3ccccc3)c(-c3ccc(C4(N)CCC4)cc3)nn12 [Example 11-0, (E)-3-{6-[4-(1-Amino-cyclobutyl)-phenyl]-2-methyl-7-phenyl-imidazo[1,2-b]pyridazin-3-yl}-acrylic acid methyl ester]
16.7 µM	10 µM	8.94 µM	3.2 µM	C=Cc1c(C)nc2cc(-c3ccccc3)c(-c3ccc(C4(N)CCC4)cc3)nn12 [Example 12-0, 1-[4-(2-Methyl-7-phenyl-3-vinyl-imidazo[1,2-b]pyridazin-6-yl)-phenyl]-cyclobutylamine]
